Legend:
α-glucosidase [1] = target: T1, α-glucosidase (Saccharomyces cerevisiae, UniProt P53341); assay: α-Glucosidase inhibitory assay (p-NPG substrate); settings: for inhibition at 750 µM: read-out: α-glucosidase inhibitory activity 750 μM (%)
Description: The α-glucosidase (G5003, Sigma-Aldrich) was obtained from Saccharomyces cerevisiae and the enzyme inhibitory assay was performed using formerly described method[24] with some modifications. […] The percentage inhibition was calculated using the following equation: % inhibition=[1–(ODcompound–ODblank)/(ODcontrol–ODblank)]×100

tyrosinase [2] = target: T2, tyrosinase (Agaricus bisporus, UniProt C7FF04); assay: Tyrosinase inhibitory assay (L-tyrosine substrate); settings: read-out: tyrosinase inhibitory activity 100 μM (%)
Description: After 5 min pre-incubation of the mixture at 37 °C, 50 µL of 2 mM L-tyrosine in buffer were added and incubated for additional 20 min at 37 °C. The control wells contained DMSO instead of compound, and the blank wells were added with buffer in place of L-tyrosine. […] The percentage inhibition was calculated using the formula as below: % inhibition=[1–(ODcompound–ODblank)/(ODcontrol–ODblank)]×100

α-glucosidase [3] = target: T1, α-glucosidase; assay: Kinetic analysis of α-glucosidase inhibition (Lineweaver-Burk, secondary plot); assay type: biochemical
Description: The α-glucosidase (G5003, Sigma-Aldrich) was obtained from Saccharomyces cerevisiae and the enzyme inhibitory assay was performed using formerly described method[24] with some modifications. […]. The OD values were measured at 405 nm with microplate reader. Acarbose was used as reference compound. The percentage inhibition was calculated using the following equation: % inhibition=[1–(ODcompound–ODblank)/(ODcontrol–ODblank)]×100
(§1) The data were expressed as double-reciprocal Lineweaver − Burk plot and the inhibition constants (KI and KIS) were obtained from secondary plots of slope and y intercept of lines from Lineweaver-Burk plot against inhibitor[25].

tyrosinase [4] = target: T2, tyrosinase; assay: Kinetic analysis of tyrosinase inhibition (Lineweaver-Burk, secondary re-plots); assay type: biochemical, mushroom
Description: . Briefly, 130 µL of tyrosinase (50 U/mL) solvated in 50 mM phosphate buffer (pH: 6.8) were mixed with 20 µL of 2-fold serial dilutions (from 1 mM to 0.03125 mM) of compounds in DMSO, and transferred into a 96-well plate. After 5 min pre-incubation of the mixture at 37 °C, 50 µL of 2 mM L-tyrosine in buffer were added and incubated for additional 20 min at 37 °C. The control wells contained DMSO instead of compound, and the blank wells were added with buffer in place of L-tyrosine. Kojic acid was used as a positive control. The absorbance was measured at 495 nm using microplate reader. The percentage inhibition was calculated using the formula as below: % inhibition=[1–(ODcompound–ODblank)/(ODcontrol–ODblank)]×100
as §1

T1 sequence (P53341 whole entry): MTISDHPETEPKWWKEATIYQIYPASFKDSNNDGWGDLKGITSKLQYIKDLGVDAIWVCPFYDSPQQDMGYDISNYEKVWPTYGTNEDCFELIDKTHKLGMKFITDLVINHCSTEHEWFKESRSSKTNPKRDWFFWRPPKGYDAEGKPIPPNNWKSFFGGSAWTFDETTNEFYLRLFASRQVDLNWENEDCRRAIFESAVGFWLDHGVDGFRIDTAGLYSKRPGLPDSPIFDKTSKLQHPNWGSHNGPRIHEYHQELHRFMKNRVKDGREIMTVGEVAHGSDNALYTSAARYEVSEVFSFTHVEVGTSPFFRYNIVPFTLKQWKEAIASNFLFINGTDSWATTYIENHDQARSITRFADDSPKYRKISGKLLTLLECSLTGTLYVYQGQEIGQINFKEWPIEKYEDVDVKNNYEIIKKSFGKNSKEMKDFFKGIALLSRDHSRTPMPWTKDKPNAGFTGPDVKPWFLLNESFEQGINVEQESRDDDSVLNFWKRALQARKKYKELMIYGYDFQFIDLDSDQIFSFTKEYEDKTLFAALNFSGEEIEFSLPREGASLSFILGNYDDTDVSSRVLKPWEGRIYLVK
T2 sequence (C7FF04 1-392): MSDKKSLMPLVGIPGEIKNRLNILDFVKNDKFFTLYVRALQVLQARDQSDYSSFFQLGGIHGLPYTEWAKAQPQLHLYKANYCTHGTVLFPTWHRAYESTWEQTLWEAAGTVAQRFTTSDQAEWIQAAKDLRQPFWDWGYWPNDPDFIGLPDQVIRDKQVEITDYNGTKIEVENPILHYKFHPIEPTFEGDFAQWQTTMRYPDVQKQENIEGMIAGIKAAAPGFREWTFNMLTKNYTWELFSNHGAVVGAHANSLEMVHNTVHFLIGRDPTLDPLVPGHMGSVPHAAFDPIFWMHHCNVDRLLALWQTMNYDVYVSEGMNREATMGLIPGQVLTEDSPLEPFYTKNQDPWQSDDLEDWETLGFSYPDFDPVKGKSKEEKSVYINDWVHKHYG

| SMILES | inhibition at 750 µM (α-glucosidase [1]) [%] | inhibition at 100 µM (tyrosinase [2]) [%] | further results |
| --- | --- | --- | --- |
| C=C1C2CCC3(C(CO)CCC3C1(C)C)C2O (centres unmarked) [Compound 1, Agarozizanol A] | 37.4 ± 1.4 | < 30 |  |
| CC1=C2CCC(C)C23CCC(C3)C1(C)CO (centres unmarked) [Compound 5, Agarozizanol E] | 93.4 ± 3.1 | < 30 | type of inhibition of α-glucosidase (α-glucosidase [3]): uncompetitive inhibitors |
| CC1=C2C(O)CC(CO)C23CCC(C3)C1(C)C (centres unmarked) [Compound 6, Agarozizanol F] | < 30 | < 30 |  |
| CC1=C2CCC(CO)C23CCC(C3)C1(C)C (centres unmarked) [Compound 10, isokhusenol] | 92.1 ± 3.4 | < 30 |  |
| COc1ccc(CCc2cc(=O)c3cc(OC)c(O)cc3o2)cc1O [Compound 12, 6-methoxy-7-hydroxy-2-[2-(3-hydroxy-4-methoxyphenyl)ethyl]chromone] | < 30 | < 30 |  |
| COc1ccc(CCc2cc(=O)c3cc(O)c(OC)cc3o2)cc1O [Compound 13, 6-hydroxy-7-methoxy-2-[2-(3-hydroxy-4-methoxyphenyl)ethyl]chromone] | < 30 | 53.4 ± 0.7 |  |
| COc1ccc(CCc2cc(=O)c3cc(O)cc(O)c3o2)cc1 [Compound 14, 6,8-dihydroxy-2-[2-(4-methoxyphenyl)ethyl]chromone] | < 30 | 65 ± 1.8 | type of inhibition of tyrosinase (tyrosinase [4]; Lineweaver-Burk plot): mixed type inhibitors; inhibition constant KIS, binding with enzyme-substrate complex (tyrosinase) (tyrosinase [4]; secondary re-plot of y intercept vs. inhibitor): 72.8 µM |
| O=c1cc(CCc2ccccc2)oc2c1C(O)C(O)C(O)C2Cl (centres unmarked) [Compound 15, 8-chloro-2–(2-phenylethyl)-5,6,7-trihydroxy-5,6,7,8-tetrahydrochromone] | < 30 | 34.8 ± 1.4 |  |
| COc1ccc(CCc2cc(=O)c3c(o2)C(Cl)C(O)C(O)C3O)cc1 (centres unmarked) [Compound 16, 8-chloro-2–(2-(4-methoxyphenyl)ethyl)-5,6,7-trihydroxy-5,6,7,8-tetrahydrochromone] | < 30 | < 30 |  |
| C[C@H]1O[C@H](O[C@H]2[C@H](O)[C@@H](O)[C@@H](O[C@H]3[C@H](O)[C@@H](O)C(O)O[C@@H]3CO)O[C@@H]2CO)[C@H](O)[C@@H](O)[C@@H]1N[C@H]1C=C(CO)[C@@H](O)[C@H](O)[C@H]1O (some centres unmarked) [acarbose, reference compound] |  |  | α-glucosidase inhibitory activity 750 μM (%) (α-glucosidase [1]; 750 μM, means ± SD, three individual experiments): 50.7 ± 1.2%; α-glucosidase inhibition rate (α-glucosidase [1]; concentration of 50 µg/mL): 62.06 ± 4.77% |

Now from value to compound, other results behind:

| inhibition at 750 µM (α-glucosidase [1]) [%] | inhibition at 100 µM (tyrosinase [2]) [%] | SMILES | further results |
| --- | --- | --- | --- |
| 42 ± 2.7 | < 30 | CC1CCC2C(C)(C)C(CO)C3(O)CCC12C3 (centres unmarked) [Compound 2, Agarozizanol B] |  |
| < 30 | < 30 | CC1CCC2C13CCC(C3O)C(C)(O)C2(C)C (centres unmarked) [Compound 3, Agarozizanol C] |  |
| 49.9 ± 1.8 | < 30 | CC1CCC2C13CCC(C3)C(O)(CO)C2(C)C (centres unmarked) [Compound 4, Agarozizanol D] |  |
| 86.9 ± 0.4 | < 30 | CC1CCC2C13CCC(C3)C(C)(O)C2(C)C (centres unmarked) [Compound 7, Jinkohol I] |  |
| 77.3 ± 1 | < 30 | CC1CCC2C(C)(C)C(CO)C3CCC12C3 (centres unmarked) [Compound 8, Jinkohol II] |  |
| 48.9 ± 1.1 | < 30 | CC1CCC2C(C)(C)C(C(=O)O)C3CCC12C3 (centres unmarked) [Compound 9, Jinkoholic acid] |  |
